“Also recorded” adds a separate entry of the source. Like-named read-outs stand apart in the source and are kept apart here. Marks after values point to notes of the source that are not given here.
Columns and labels:
MDA-MB-231 cells [1] = assay: Cell cycle analysis by propidium iodide flow cytometry; assay type: cell-based, human; settings: for speed of induction of cell cycle arrest in G2+M compared with 4-tBCEU: 30 μM, 24 or 48 h; for accumulation of cells in G2+M: CEU derivatives at 30 μM, 24 h, flow cytometry
Procedure: FIG. 1. Effect of CEU derivatives on cell cycle. Exponentially growing MDA-MB-231 cells were incubated in the absence or presence of 30 μM of either 4-tBCEU, 4-iPCEU or 4-sBCEU for 24 and 48 h, respectively, at 37° C. The cell cycle was evaluated using propidium iodide staining and flow cytometric analysis. Data are representative of three independent experiments.
Following incubation of MDA-MB-231 cells with 4-tBCEU, 4-iPCEU or 4-sBCEU, the cells were harvested, resuspended in 1 ml PBS and fixed by the addition of 2.4 ml of ice cold anhydrous ethanol. Then, 5×10^5 cells from each sample were centrifuged for 3 min at 1000×g. Cell pellets were resuspended in PBS containing 50 μg/ml of PI and 40 U/ml of ribonuclease A (Boehringer Mannheim, Laval, Calif.). Mixtures were incubated at room temperature for 30 min and cell cycle distribution was analyzed using an Epics Elite ESP flow cytometer (Coulter Corporation, Miami, Fla., USA).
The effect of CEU, namely 4-tBCEU, 4-PCEU and 4-sBCEU, on the cell cycle was analyzed. To this end, exponentially growing MDA-MB-231 cells were treated with 30 μM 4-tBCEU, 4-iPCEU or 4-sBCEU for 24 or 48 h followed by an evaluation of cell cycle distribution by flow cytometry using propidium iodide, a fluorescent DNA dye. […] Induction of mitosis blockage in prophase by CEU derivatives was confirmed by mitotic index analysis as described by Drouin (22).

β-tubulin = assay: Separation of soluble and polymerized tubulins, Western blot of β-tubulin; assay type: cell-based, human; settings: MDA-MB-231 cells, 30 μM, 24 h and 48 h; for formation of modified β-tubulin (second immunoreactive band of lower Mr): free tubulin fraction
Procedure: FIG. 2. Effects of CEU derivatives on microtubule depolymerization. Exponentially growing MDA-MB-231 cells were incubated in the absence or the presence of 30 μM of CEU derivatives including (A) 4-tBCEU, 4-iPCEU or 4-sBCEU for 24 and 48 h respectively; (B) 2-ECEU, 3-ECEU or 4-ECEU for 24 and 48 h; and (C) 4-tBEU, 4-iPEU, 4-sBEU, 4-tBCPU, CEU or 4-methoxyCEU for 48 h. Free tubulin and microtubule fractions were isolated and analyzed by Western blot. Data are representative of three different experiments.
Separation of soluble and polymerized tubulins from MDA-MB231 cells was carried out as described by Minotti et al. (14) with minor modifications. Briefly, after drug exposure, about 5×10^6 cells in 100-mm petri dishes were washed with PBS at 37° C. and harvested in 3 ml of PBS containing 0.4 μg/ml of taxol using a rubber policeman.
Cells were centrifuged and lysed using 250 μl of microtubule-stabilizing buffer (20 mM Tris-HCl, pH 6.8, 140 mM NaCl, 1 mM MgCl2, 2 mM EDTA, 0.5% Nonidet P-40 and 0.4 μg/ml taxol), and then transferred to 1.5 ml microcentrifuge tubes. Samples were centrifuged at 12,000×g for 10 min at 4° C. and the supernatants containing soluble tubulin were placed in separate microcentrifuge tubes containing 250 μl of 2× Laemmli sample buffer (15). Pellets containing the polymerized tubulin were resuspended in 250 μl of water, followed by two freeze/thawing cycles, and the addition of 250 μl of 2× Laemmli sample buffer. Samples were analyzed by SDS-PAGE and immunoassay was performed as described below.
Samples (1×10^5 cells) were analyzed by 10% SDS-PAGE using the Laemmli system (15). Membranes were then incubated with PBSMT (PBS, pH 7.4, 5% fat-free dry milk and 0.1% Tween-20) for 1 h at room temperature, and then with 1:500 monoclonal anti-β-tubulin (clone TUB 2.1, Sigma) or 1:400 anti (clone no. SDL.3D10, Sigma) for 1 h. […] Membranes were washed with PBSMT and incubated with 1:2500 peroxidase-conjugated anti-mouse immunoglobulin (Amersham Canada, Oakville, Canada) in PBSMT for 30 min. Detection of the immunoblot was carried out with the ECL Western blotting detection reagent kit (Amersham Canada, Oakville, Canada).

[2] = tested on: CHO 10001 cells (wild-type); assay: MTT cytotoxicity on wild-type CHO cells; assay type: cell-based, Chinese hamster; settings: Cricetulus griseus, CHO10001, 120 h, read-out: IC50 CHO 10001
Procedure: (§1) Human breast carcinoma cell line, MDA-MB-231, was obtained from the American Type Culture Collection (ATCC HTB-26; Bethesda, Md.). MDA-MB-231 cells were grown in RPMI 1640 medium supplemented with 10% bovine calf serum (Hyclone, Road Logan, Utah). […] These cells were cultured in RPMI 1640 containing 10% fetal bovine serum. SK—N—SH human neuroblastoma cells, (ATCC HTB-11; Bethesda, Md.) were cultured in MEM medium supplemented with 2 mM L-glutamine, 1.5 g/liter sodium bicarbonate, 0.1 mM non-essential amino acids, 1 mM sodium pyruvate and 10% fetal bovine serum. Cells were cultured in a humidified atmosphere at 37° C. in 5% CO2.
(§2) Cytotoxicity was assessed using the MTT assay (3-(4,5-dimethylthiazol-2-yl)-2,5-diphenyltetrazolium bromide) as described by Carmichael et al. (12).
(§3) The cytotoxicity of 4-tBCEU, 4-iPCEU and 4-sBCEU in two CHO cell lines having differential sensitivity to antmicrotubule agents was evaluated. These cell lines are derived from parental CHO-10001 cells and express mutated tubulins.

[3] = Kinetics of alkylation of 4-(4-nitrobenzyl)pyridine (colorimetric assay); assay type: physicochemical; settings: 80° C., pH 4.3, absorbance at 570 nm, linear regression, mean ± SD
Procedure: The rate constant of alkylation (K′) of CEU derivatives and chlorambucil was evaluated by a […] assay as described by Bardos et al (13). Briefly, 1 ml of a 10% (v/v) solution of 4-(4-nitrobenzyl)pyridine in ethanol and 1 ml of 50 mM sodium acetate (pH 4.3) were added to an ethanol solution (95%) containing 400 nmol per ml of either chlorambucil or CEU and heated to 80° C. in a shaking water bath for 60, 90, 120 or 150 min. The reaction was stopped by cooling the mixtures on ice for 5 min. Then, 1.5 ml of 0.1 M KOH: ethanol (1:2, v/v) were added to the reaction mixture. Samples were vortexed for 12 sec and set aside for 2.5 min prior to reading the absorbance at 570 nm. The values were compared with those obtained using a blank sample containing all reagents except the alkylating agent.

CHO VV 3-2 cells = assay: MTT cytotoxicity on vinblastine- and colchicine-resistant CHO cells expressing mutated tubulin; assay type: cell-based, Chinese hamster; settings: Cricetulus griseus, CHO-VV 3-2, 120 h, read-out: IC50 CHO VV 3-2
Procedure: as §1, §2, §3

CHO TAX 5-6 cells = assay: MTT cytotoxicity on taxol-resistant CHO cells expressing mutated tubulin; assay type: cell-based, Chinese hamster; settings: Cricetulus griseus, CHO-TAX 5-6, 120 h, read-out: IC50 CHO TAX 5-6
Procedure: as §1, §2, §3

MDA-MB-231 cells [4] = assay: cells; assay type: cell-based, human; settings: for IC50: MTT assay, mean ± SD, read-out: IC50 (μM) MDA-MB-231
Procedure: Human breast carcinoma cell line, MDA-MB-231, was obtained from the American Type Culture Collection (ATCC HTB-26; Bethesda, Md.). MDA-MB-231 cells were grown in RPMI 1640 medium supplemented with 10% bovine calf serum (Hyclone, Road Logan, Utah). Wild-type Chinese Hamster Ovary cells (CHO-10001) (7), colchicine- and vinblastine-resistant (CHO-VV 3-2) (8) and taxol-resistant (CHO-TAX 5-6) cells (9) were generously provided by Dr. Fernando Cabral (University of Texas Medical School, Houston, Tex.). These cells were cultured in RPMI 1640 containing 10% fetal bovine serum. SK—N—SH human neuroblastoma cells, (ATCC HTB-11; Bethesda, Md.) were cultured in MEM medium supplemented with 2 mM L-glutamine, 1.5 g/liter sodium bicarbonate, 0.1 mM non-essential amino acids, 1 mM sodium pyruvate and 10% fetal bovine serum. Cells were cultured in a humidified atmosphere at 37° C. in 5% CO2.
as §2

[5] = Homo sapiens, MDA-MB-231, concentration inhibiting 50% of cell growth
[6] = concentration inhibiting 50% of cell growth

**Q.** Which “speed of induction of cell cycle arrest in G2+M compared with 4-tBCEU” value (MDA-MB-231 cells [1]) does the source give for `CC(C)c1ccc(NC(=O)NCCCl)cc1` [Example 4-iPCEU, 4-iso-propyl[3-(2-chloroethyl)ureido]benzene] here?
**A.** more rapidly

**Q.** What about the “accumulation of cells in G2+M” value (MDA-MB-231 cells [1]) of the same molecule?
**A.** significant accumulation of cells in the G2+M

**Q.** And the microtubule depolymerization (β-tubulin)?
**A.** complete microtubule depolymerization

**Q.** And the “formation of modified β-tubulin (second immunoreactive band of lower Mr)” value (β-tubulin)?
**A.** second immunoreactive band; also recorded: slighly faster than for 4-tBCEU

**Q.** What about the IC50 [2] of the same molecule?
**A.** 4400 ± 200 nM

**Q.** What about the “K′ (constant of alkylation of 4-(4-nitrobenzyl)pyridine)” value [3] of the same molecule?
**A.** 3.0 ± 0.1^a

**Q.** What about the IC50 (CHO VV 3-2 cells) of the same molecule?
**A.** 7700 ± 400 nM

**Q.** And the IC50 (CHO TAX 5-6 cells)?
**A.** 2000 ± 100 nM

**Q.** And the “cytotoxicity in words (active / inactive CEU)” value (MDA-MB-231 cells [4])?
**A.** active

**Q.** And the IC50 (MDA-MB-231 cells [4]; [5])?
**A.** 2 µM

**Q.** And the IC50 (MDA-MB-231 cells [4]; [6])?
**A.** 2.2 ± 0.3 µM

**Q.** For `CCC(C)c1ccc(NC(=O)NCCCl)cc1` (stereo not shown) [Example 4-sBCEU, 4-sec-butyl[3-(2-chloroethyl)ureido]benzene], which “speed of induction of cell cycle arrest in G2+M compared with 4-tBCEU” value (MDA-MB-231 cells [1]) is on record?
**A.** more rapidly

**Q.** And the “accumulation of cells in G2+M” value (MDA-MB-231 cells [1])?
**A.** significant accumulation of cells in the G2+M

**Q.** And the microtubule depolymerization (β-tubulin)?
**A.** complete microtubule depolymerization

**Q.** What about the “formation of modified β-tubulin (second immunoreactive band of lower Mr)” value (β-tubulin) of the same molecule?
**A.** second immunoreactive band; also recorded: slighly faster than for 4-tBCEU

**Q.** And the IC50 [2]?
**A.** 5000 ± 200 nM

**Q.** What about the “K′ (constant of alkylation of 4-(4-nitrobenzyl)pyridine)” value [3] of the same molecule?
**A.** 3.1 ± 0.3^a

**Q.** And the IC50 (CHO VV 3-2 cells)?
**A.** 8200 ± 400 nM

**Q.** And the IC50 (CHO TAX 5-6 cells)?
**A.** 2100 ± 100 nM

**Q.** What about the “cytotoxicity in words (active / inactive CEU)” value (MDA-MB-231 cells [4]) of the same molecule?
**A.** active

**Q.** What about the IC50 (MDA-MB-231 cells [4]; [5]) of the same molecule?
**A.** 2 µM

**Q.** What about the IC50 (MDA-MB-231 cells [4]; [6]) of the same molecule?
**A.** 2.3 ± 0.1 µM

Source: US20050250853A1, “Beta-tubulin inhibitors” (priority 1999, published 2005)
